Laboratory results as given in ChEMBL document CHEMBL1201862, “PubChem BioAssay data set” (2004).
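Exposure lasted 48 hours, with cells grown in 96-well plates and compounds tested at five concentrations. GI50: concentration for 50% inhibition of growth.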 The source made the active and inactive calls. No stated cut-off is given here; in the data, active = GI50 up to about 1.1 µM and inactive = higher.

How the values were obtained:
Experiment in all cases: growth of human tumour cells (NCI), 48 h
NCI-H226 = test system: NCI-H226
UO-31 = test system: UO-31
MCF7 = test system: MCF7
SF-539 = test system: SF-539
T47D = test system: T47D
EKVX = test system: EKVX
HCC 2998 = test system: HCC 2998
OVCAR-3 = test system: OVCAR-3
RPMI-8226 = test system: RPMI-8226
COLO 205 = test system: COLO 205
DU-145 = test system: DU-145
MDA-MB-435 = test system: MDA-MB-435
HCT-116 = test system: HCT-116
SK-OV-3 = test system: SK-OV-3
NCI-H460 = test system: NCI-H460
BT-549 = test system: BT-549
SF-268 = test system: SF-268
OVCAR-5 = test system: OVCAR-5
HT-29 = test system: HT-29
NCI/ADR-RES = test system: NCI/ADR-RES
OVCAR-4 = test system: OVCAR-4
PC-3 = test system: PC-3
MDA-MB-231 = test system: MDA-MB-231
SR = test system: SR
SK-MEL-5 = test system: SK-MEL-5
MOLT-4 = test system: MOLT-4
NCI-H23 = test system: NCI-H23
Hs-578T = test system: Hs-578T
UACC-62 = test system: UACC-62
KM12 = test system: KM12
LOX IMVI = test system: LOX IMVI
786-0 = test system: 786-0
TK-10 = test system: TK-10
SW-620 = test system: SW-620
SN12C = test system: SN12C
OVCAR-8 = test system: OVCAR-8
SNB-75 = test system: SNB-75
CAKI-1 = test system: CAKI-1
UACC-257 = test system: UACC-257
MDA-N = test system: MDA-N
SK-MEL-2 = test system: SK-MEL-2
CCRF-CEM = test system: CCRF-CEM
RXF 393 = test system: RXF 393
Malme-3M = test system: Malme-3M
HCT-15 = test system: HCT-15
SK-MEL-28 = test system: SK-MEL-28
M14 = test system: M14
A549 = test system: A549
K562 = test system: K562
HL-60 = test system: HL-60
A498 = test system: A498
SNB-19 = test system: SNB-19
U-251 = test system: U-251
HOP-62 = test system: HOP-62
HOP-92 = test system: HOP-92
IGROV-1 = test system: IGROV-1
ACHN = test system: ACHN
NCI-H522 = test system: NCI-H522
SF-295 = test system: SF-295

Question: Which GI50 (NCI-H226) does the source give for CSc1c(C#N)c(=O)[nH]c2[nH]nc(C)c12 here?
Answer: > 100 µM (inactive)

Question: And the GI50 (UO-31)?
Answer: > 100 µM (inactive)

Question: And the GI50 (MCF7)?
Answer: > 100 µM (inactive)

Question: And the GI50 (SF-539)?
Answer: > 100 µM (inactive)

Question: And the GI50 (T47D)?
Answer: > 100 µM (inactive)

Question: What about the GI50 (EKVX) of the same molecule?
Answer: > 100 µM (inactive)

Question: And the GI50 (HCC 2998)?
Answer: > 100 µM (inactive)

Question: What about the GI50 (OVCAR-3) of the same molecule?
Answer: > 100 µM (inactive)

Question: And the GI50 (RPMI-8226)?
Answer: > 100 µM (inactive)

Question: And the GI50 (COLO 205)?
Answer: > 100 µM (inactive)

Question: What about the GI50 (DU-145) of the same molecule?
Answer: > 100 µM (inactive)

Question: What about the GI50 (MDA-MB-435) of the same molecule?
Answer: > 100 µM (inactive)

Question: What about the GI50 (HCT-116) of the same molecule?
Answer: 33.3 µM (inactive)

Question: What about the GI50 (SK-OV-3) of the same molecule?
Answer: > 100 µM (inactive)

Question: And the GI50 (NCI-H460)?
Answer: > 100 µM (inactive)

Question: And the GI50 (BT-549)?
Answer: > 100 µM (inactive)

Question: And the GI50 (SF-268)?
Answer: > 100 µM (inactive)

Question: And the GI50 (OVCAR-5)?
Answer: > 100 µM (inactive)

Question: And the GI50 (HT-29)?
Answer: > 100 µM (inactive)

Question: What about the GI50 (NCI/ADR-RES) of the same molecule?
Answer: > 100 µM (inactive)

Question: And the GI50 (OVCAR-4)?
Answer: > 100 µM (inactive)

Question: And the GI50 (PC-3)?
Answer: > 100 µM (inactive)

Question: What about the GI50 (MDA-MB-231) of the same molecule?
Answer: > 100 µM (inactive)

Question: What about the GI50 (SR) of the same molecule?
Answer: > 100 µM (inactive)

Question: And the GI50 (SK-MEL-5)?
Answer: > 100 µM (inactive)

Question: And the GI50 (MOLT-4)?
Answer: > 100 µM (inactive)

Question: And the GI50 (NCI-H23)?
Answer: > 100 µM (inactive)

Question: What about the GI50 (Hs-578T) of the same molecule?
Answer: > 100 µM (inactive)

Question: And the GI50 (UACC-62)?
Answer: > 100 µM (inactive)

Question: And the GI50 (KM12)?
Answer: > 100 µM (inactive)

Question: What about the GI50 (LOX IMVI) of the same molecule?
Answer: > 100 µM (inactive)

Question: And the GI50 (786-0)?
Answer: > 100 µM (inactive)

Question: And the GI50 (TK-10)?
Answer: > 100 µM (inactive)

Question: What about the GI50 (SW-620) of the same molecule?
Answer: > 100 µM (inactive)

Question: What about the GI50 (SN12C) of the same molecule?
Answer: > 100 µM (inactive)

Question: What about the GI50 (OVCAR-8) of the same molecule?
Answer: > 100 µM (inactive)

Question: And the GI50 (SNB-75)?
Answer: > 100 µM (inactive)

Question: What about the GI50 (CAKI-1) of the same molecule?
Answer: 22.1 µM (inactive)

Question: What about the GI50 (UACC-257) of the same molecule?
Answer: > 100 µM (inactive)

Question: What about the GI50 (MDA-N) of the same molecule?
Answer: > 100 µM (inactive)

Question: And the GI50 (SK-MEL-2)?
Answer: > 100 µM (inactive)

Question: What about the GI50 (CCRF-CEM) of the same molecule?
Answer: > 100 µM (inactive)

Question: And the GI50 (RXF 393)?
Answer: > 100 µM (inactive)

Question: And the GI50 (Malme-3M)?
Answer: > 100 µM (inactive)

Question: And the GI50 (HCT-15)?
Answer: > 100 µM

Question: And the GI50 (SK-MEL-28)?
Answer: > 100 µM (inactive)

Question: What about the GI50 (M14) of the same molecule?
Answer: > 100 µM (inactive)

Question: What about the GI50 (A549) of the same molecule?
Answer: > 100 µM (inactive)

Question: What about the GI50 (K562) of the same molecule?
Answer: > 100 µM (inactive)

Question: And the GI50 (HL-60)?
Answer: > 100 µM (inactive)

Question: And the GI50 (A498)?
Answer: > 100 µM (inactive)

Question: What about the GI50 (SNB-19) of the same molecule?
Answer: > 100 µM (inactive)

Question: What about the GI50 (U-251) of the same molecule?
Answer: > 100 µM (inactive)

Question: What does the source list for C=C(Cl)C(Cl)(CBr)CCCC(C)C (stereo unspecified)?
Answer: GI50 (NCI-H226): > 100 µM (inactive); GI50 (UO-31): 16.3 µM (inactive); GI50 (MCF7): 12.4 µM (inactive); GI50 (SF-539): 9.98 µM (inactive); GI50 (T47D): > 21.2 µM (inactive); GI50 (EKVX): 18.3 µM (inactive); GI50 (HOP-62): 13.7 µM (inactive); GI50 (HOP-92): 17.2 µM (inactive); GI50 (HCC 2998): 19.6 µM (inactive); GI50 (IGROV-1): > 100 µM (inactive); GI50 (OVCAR-3): 6.89 µM (inactive); GI50 (RPMI-8226): 2.92 µM (inactive); GI50 (COLO 205): 19.4 µM (inactive); GI50 (DU-145): 11.5 µM (inactive); GI50 (MDA-MB-435): 37.5 µM (inactive); GI50 (HCT-116): 6.47 µM (inactive); GI50 (SK-OV-3): > 100 µM (inactive); GI50 (NCI-H460): 15.7 µM (inactive); GI50 (BT-549): > 85.9 µM (inactive); GI50 (SF-268): 15.1 µM (inactive); GI50 (OVCAR-5): 19.9 µM (inactive); GI50 (ACHN): 13.3 µM (inactive); GI50 (HT-29): 4.42 µM (inactive); GI50 (NCI/ADR-RES): 27 µM (inactive); GI50 (OVCAR-4): 33 µM (inactive); GI50 (PC-3): 13.2 µM (inactive); GI50 (MDA-MB-231): 20.7 µM (inactive); GI50 (SR): > 75.7 µM (inactive); GI50 (SK-MEL-5): > 100 µM (inactive); GI50 (MOLT-4): > 100 µM (inactive); GI50 (NCI-H23): > 100 µM (inactive); GI50 (Hs-578T): 7.19 µM (inactive); GI50 (UACC-62): > 63.5 µM (inactive); GI50 (KM12): 11.8 µM (inactive); GI50 (LOX IMVI): > 100 µM (inactive); GI50 (786-0): 9.66 µM (inactive); GI50 (TK-10): 16.4 µM (inactive); GI50 (SW-620): 40.1 µM (inactive); GI50 (SN12C): > 100 µM (inactive); GI50 (NCI-H522): > 100 µM (inactive); GI50 (OVCAR-8): 20.7 µM (inactive); GI50 (SNB-75): 8.83 µM (inactive); GI50 (CAKI-1): 5.81 µM (inactive); GI50 (UACC-257): 14.6 µM (inactive); GI50 (MDA-N): 22 µM (inactive); GI50 (CCRF-CEM): > 57.5 µM (inactive); GI50 (RXF 393): 7.69 µM (inactive); GI50 (Malme-3M): > 100 µM (inactive); GI50 (HCT-15): > 49.3 µM; GI50 (SK-MEL-28): 19.4 µM (inactive); GI50 (SF-295): 15.8 µM (inactive); GI50 (M14): > 100 µM (inactive); GI50 (A549): 21.4 µM (inactive); GI50 (K562): 26.5 µM (inactive); GI50 (HL-60): 12.1 µM (inactive); GI50 (A498): 19.4 µM (inactive); GI50 (SNB-19): 18.7 µM (inactive); GI50 (U-251): 8.73 µM (inactive)
